The source of these data is patent US11235976B2, “Nanocarbon-iron composite system as well as composition, preparation method and use thereof” (Chongqing Lummy Pharmaceutical Co., LTD, priority 2017, dated 2022).

Test [1] has as its system SKOV3 ovarian cancer cells. The experiment in a line: Cell experiment, cell survival rate. As to conditions: iron preparation alone 13.65 μg/mL, 48 h. The test is classed as cell-based. As for the experimental part: (§1) Cells growing in a log phase are collected, the concentration of the cell suspension is adjusted, 100 μL of cell suspension is added to each well and the cells are plated (edge wells are filled with sterile PBS) at a density of 1×10^3-10^4 cells/well. The cells are incubated for 24 hours at 37° C. under the condition of 5% CO2, a nanocarbon-iron solution having a concentration gradient (nanocarbon content: 125, 62.5, 15.63 and 3.91 μg/mL; and ferric ion content: 13.65, 6.83, 1.71 and 0.43 μg/mL) is added, and three sub-wells are set. Then the cells are incubated for 48 hours at 37° C. under the condition of 5% CO2. 10 μL of CCK8 solution is added to each well and then the cells are continuously incubated for 2 hours. The absorbance of each well is measured at OD=450 nm with the microplate reader. In addition, a negative control group, nanocarbon control groups having the same concentration and iron preparation control groups having the same concentration are set.
as §1, with “and 1” for “100”, “of a 6-well plate” for “and the cells are plated (edge wells are filled with sterile PBS)”, “3×10^4” for “1×10^3-10^4”, “1.71,” for “1.71 and”, “The” for “10 μL of CCK8 solution is added to each well and then the”, “trypsinized and counted.” for “continuously incubated for 2 hours. The absorbance of each well is measured at OD=450 nm with the microplate reader.”

Test [2] relates to SMMC7721 liver cancer cells. The experiment in a line: Cell experiment, cell survival rate. The test is classed as cell-based. As to conditions: SMMC-7721, 48 h. As for the experimental part: as §1
as §1, with “and 1” for “100”, “of a 6-well plate” for “and the cells are plated (edge wells are filled with sterile PBS)”, “3×10^4” for “1×10^3-10^4”, “1.71,” for “1.71 and”, “The” for “10 μL of CCK8 solution is added to each well and then the”, “trypsinized and counted.” for “continuously incubated for 2 hours. The absorbance of each well is measured at OD=450 nm with the microplate reader.”

Test [3] deals with TPC-1 thyroid cancer cells. The test is described as follows: Cell experiment, cell survival rate. The settings on record: 48 h. The format is cell-based. The protocol:
as §1
as §1, with “and 1” for “100”, “of a 6-well plate” for “and the cells are plated (edge wells are filled with sterile PBS)”, “3×10^4” for “1×10^3-10^4”, “1.71,” for “1.71 and”, “The” for “10 μL of CCK8 solution is added to each well and then the”, “trypsinized and counted.” for “continuously incubated for 2 hours. The absorbance of each well is measured at OD=450 nm with the microplate reader.”

For test [4], the system named is murine liver cancer H22 cells. The experiment in a line: Cell experiment, cell survival rate. As to conditions: 48 h. The format is cell-based. The protocol:
as §1
as §1, with “and 1” for “100”, “of a 6-well plate” for “and the cells are plated (edge wells are filled with sterile PBS)”, “3×10^4” for “1×10^3-10^4”, “1.71,” for “1.71 and”, “The” for “10 μL of CCK8 solution is added to each well and then the”, “trypsinized and counted.” for “continuously incubated for 2 hours. The absorbance of each well is measured at OD=450 nm with the microplate reader.”

For test [5], the system named is subcutaneous transplantation tumors of 9 types of cancer cells. The test is described as follows: Tumor growth inhibition experiments, subcutaneous transplantation tumors. The test is classed as in vivo, mice. The settings on record: FIGS. 4-39. The protocol: Cells growing in a log phase are collected, the concentration of the cell suspension is adjusted to 3×10^7 cells/mL, and the cell suspension is inoculated subcutaneously into the right upper extremities of nude mice at the inoculation dosage of 0.1 mL (about 3×10^6 cells) per mouse. When the average tumor volume of the inoculated mice reaches 100 mm^3, the tumor-bearing mice are randomly divided into the following groups (8 nude mice per group): a negative control group (0.9% sodium chloride injection), a nanocarbon control group, an iron preparation control group, a nanocarbon-iron suspension experimental group, and a cis-platinum control group (intraperitoneal injection at the dosage of 5 mg/kg). The above various drugs are injected into the tumors. The tumor volume changes are recorded, and the formula for calculating the volume is Volume=(length×the square of width)/2.
Milky white and thick ascites is extracted from the H22 tumor-bearing mice, the concentration of the cell suspension is adjusted to be 3×10^7 cells/mL, 0.1 mL of cell suspension (about 3×10^6 cells) is inoculated subcutaneously into the right upper extremity of each of Kunming mice. When the average tumor volume of the inoculated mice reaches 100 mm^3, the tumor-bearing mice are randomly divided into the following groups (8 mice per group): a negative control group (0.9% sodium chloride injection), a nanocarbon control group, an iron preparation control group, a nanocarbon-iron suspension experimental group, and a cis-platinum control group (intraperitoneal injection at the dosage of 5 mg/kg). The above various drugs are injected into the tumors. The tumor volume changes are recorded, and the formula for calculating the volume is Volume=(length×the square of width)/2.

The test system of test [6] is H22 metastatic lymph nodes. The test is described as follows: Lymph node metastasis inhibition experiment. The format is in vivo, Kunming mouse. The settings on record: popliteal lymph nodes. As for the experimental part: (§2) Milky white and thick ascites is extracted from the H22 tumor-bearing mice, the concentration is adjusted to be 3×10^7 cells/mL, 0.05 mL of cell suspension (about 1.5×10^6 cells) is inoculated subcutaneously into the left hind foot pads of each Kunming mouse, and thus a lymph node metastasis mouse model is obtained. The mice are treated when the diameter of the tumor reaches 6-8 mm and there is no ulcer and necrosis. The mice are randomly divided into four groups (10 mice per group): a negative control group (0.9% sodium chloride injection), a nanocarbon control group, an iron preparation control group and a nanocarbon-iron suspension experimental group. 10 days after inoculation, the mice are killed, and popliteal lymph nodes are collected, weighed and fixed for pathological examination.

Test [7] concerns A549 metastatic lymph nodes. The experiment in a line: Lymph node metastasis inhibition experiment. The test is classed as in vivo, nude mouse. The settings on record: popliteal lymph nodes. As for the experimental part:
as §2, with “Cells growing in a log phase are collected,” for “Milky white and thick ascites is extracted from the H22 tumor-bearing mice,”, “concentration of the cell suspension” for “concentration”, “to” for “to be”, “the” for “0.05 mL of”, “suspension” for “suspension (about 1.5×10^6 cells)”, “nude mouse at the inoculation volume of 0.05 mL (about 1.5×10^6 cells)” for “Kunming mouse,”

Test [8] has as its system HCT116 metastatic lymph nodes. The test is described as follows: Lymph node metastasis inhibition experiment. The format is in vivo, nude mouse. As to conditions: popliteal lymph nodes. The protocol:
as §2, with “Cells growing in a log phase are collected,” for “Milky white and thick ascites is extracted from the H22 tumor-bearing mice,”, “concentration of the cell suspension” for “concentration”, “to” for “to be”, “the” for “0.05 mL of”, “suspension” for “suspension (about 1.5×10^6 cells)”, “nude mouse at the inoculation volume of 0.05 mL (about 1.5×10^6 cells)” for “Kunming mouse,”

Test [9] has as its system Hela metastatic lymph nodes. The experiment in a line: Lymph node metastasis inhibition experiment. The format is in vivo, nude mouse. The settings on record: popliteal lymph nodes. As for the experimental part: as §2, with “Cells growing in a log phase are collected,” for “Milky white and thick ascites is extracted from the H22 tumor-bearing mice,”, “concentration of the cell suspension” for “concentration”, “to” for “to be”, “the” for “0.05 mL of”, “suspension” for “suspension (about 1.5×10^6 cells)”, “nude mouse at the inoculation volume of 0.05 mL (about 1.5×10^6 cells)” for “Kunming mouse,”

Test [10] relates to MDA-MB-231 metastatic lymph nodes. The experiment in a line: Lymph node metastasis inhibition experiment. The test is classed as in vivo, nude mouse. As to conditions: popliteal lymph nodes. As for the experimental part: as §2, with “Cells growing in a log phase are collected,” for “Milky white and thick ascites is extracted from the H22 tumor-bearing mice,”, “concentration of the cell suspension” for “concentration”, “to” for “to be”, “the” for “0.05 mL of”, “suspension” for “suspension (about 1.5×10^6 cells)”, “nude mouse at the inoculation volume of 0.05 mL (about 1.5×10^6 cells)” for “Kunming mouse,”

In test [11] the test system is SGC-7901 metastatic lymph nodes. The experiment in a line: Lymph node metastasis inhibition experiment. As to conditions: popliteal lymph nodes. The format is in vivo, nude mouse. The protocol: as §2, with “Cells growing in a log phase are collected,” for “Milky white and thick ascites is extracted from the H22 tumor-bearing mice,”, “concentration of the cell suspension” for “concentration”, “to” for “to be”, “the” for “0.05 mL of”, “suspension” for “suspension (about 1.5×10^6 cells)”, “nude mouse at the inoculation volume of 0.05 mL (about 1.5×10^6 cells)” for “Kunming mouse,”

The subject of test [12] is SKOV3 metastatic lymph nodes. The test is described as follows: Lymph node metastasis inhibition experiment. The settings on record: popliteal lymph nodes. The test is classed as in vivo, nude mouse. As for the experimental part:
as §2, with “Cells growing in a log phase are collected,” for “Milky white and thick ascites is extracted from the H22 tumor-bearing mice,”, “concentration of the cell suspension” for “concentration”, “to” for “to be”, “the” for “0.05 mL of”, “suspension” for “suspension (about 1.5×10^6 cells)”, “nude mouse at the inoculation volume of 0.05 mL (about 1.5×10^6 cells)” for “Kunming mouse,”

Test [13] concerns SMMC-7721 metastatic lymph nodes. The experiment in a line: Lymph node metastasis inhibition experiment. The format is in vivo, nude mouse. The settings on record: popliteal lymph nodes. The protocol:
as §2, with “Cells growing in a log phase are collected,” for “Milky white and thick ascites is extracted from the H22 tumor-bearing mice,”, “concentration of the cell suspension” for “concentration”, “to” for “to be”, “the” for “0.05 mL of”, “suspension” for “suspension (about 1.5×10^6 cells)”, “nude mouse at the inoculation volume of 0.05 mL (about 1.5×10^6 cells)” for “Kunming mouse,”

For test [14], the system named is TPC-1 metastatic lymph nodes. The experiment in a line: Lymph node metastasis inhibition experiment. The test is classed as in vivo, nude mouse. As to conditions: popliteal lymph nodes. The protocol:
as §2, with “Cells growing in a log phase are collected,” for “Milky white and thick ascites is extracted from the H22 tumor-bearing mice,”, “concentration of the cell suspension” for “concentration”, “to” for “to be”, “the” for “0.05 mL of”, “suspension” for “suspension (about 1.5×10^6 cells)”, “nude mouse at the inoculation volume of 0.05 mL (about 1.5×10^6 cells)” for “Kunming mouse,”

Test [15] concerns lymph node metastasis of 9 types of tumor cells. The experiment in a line: Lymph node metastasis inhibition experiment, summary. The format is in vivo, mice. As for the experimental part:
as §2, with “Cells growing in a log phase are collected,” for “Milky white and thick ascites is extracted from the H22 tumor-bearing mice,”, “concentration of the cell suspension” for “concentration”, “to” for “to be”, “the” for “0.05 mL of”, “suspension” for “suspension (about 1.5×10^6 cells)”, “nude mouse at the inoculation volume of 0.05 mL (about 1.5×10^6 cells)” for “Kunming mouse,”
as §2

The mark [16] stands for this setting: iron preparation alone 0.43 μg/mL.
Setting [17] is: iron preparation alone 1.71 μg/mL.
Setting [18] is: iron preparation alone 6.83 μg/mL.
Where [19] appears, read: iron preparation alone 13.65 μg/mL.

Regarding ferrous gluconate, the “Cell Survival Rate” value is on record as 97.11% in test [1]; 100% in [2] (setting [16]); 96.12% in test [2] (setting [17]); 97.68% in test [2] (setting [18]); 100% in [2] (setting [19]); 100% in [3] (setting [16]). Besides, the “Cell Survival Rate” value in test [3] (setting [17]) was determined as 100%; in test [3] (setting [18]) it was 100%; in test [3] (setting [19]), 98.34%; in test [4] (setting [16]) it was 100%; in test [4] (setting [17]) it was 100%; in [4] (setting [18]) it was 100%. For the same substance, the “Cell Survival Rate” value in test [4] (setting [19]) is on record as 96.14%. Also, the “inhibition effect on growth of 9 types of tumors” value in test [5] is “do not have an inhibition effect”. For the same substance, the “Weight of Lymph Node” value in test [6] amounted to 57.19 ± 15.92 mg; in test [7], 47.58 ± 20.34 mg; in test [8], 55.18 ± 20.12 mg; in test [9] it was 32.14 ± 21.36 mg; in test [10], 40.19 ± 20.69 mg; in test [11], 52.14 ± 17.43 mg. For the same substance, the entries for the “Weight of Lymph Node” value in test [12], in test [13] and in test [14] were 33.57 ± 5.94 mg, 58.97 ± 19.63 mg and 40.16 ± 9.03 mg, respectively. Also, the “inhibition effect on the metastatic lymph nodes” value in test [15] is reported as “do not have an inhibition effect”.
